Data as given in ChEMBL document CHEMBL1201862, “PubChem BioAssay data set” (2004).
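96-well plates; 48 h exposure; 5 concentrations. Endpoints by linear interpolation between flanking doses. Not reached: highest tested concentration assigned. GI50 is the concentration that inhibits growth by half.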 Activity calls are given as the source filed them. Cut-off read from the data, not from the text of the source: active = GI50 up to about 1.1 µM and inactive = higher.

What was measured:
Test in all cases: DTP human tumour cell line panel, 48 h
RPMI-8226 = system: RPMI-8226
SK-MEL-28 = system: SK-MEL-28
KM12 = system: KM12
SNB-19 = system: SNB-19
SW-620 = system: SW-620
TK-10 = system: TK-10
MDA-MB-231 = system: MDA-MB-231
COLO 205 = system: COLO 205
SF-539 = system: SF-539
SR = system: SR
PC-3 = system: PC-3
ACHN = system: ACHN
Malme-3M = system: Malme-3M
OVCAR-5 = system: OVCAR-5
UACC-257 = system: UACC-257
MDA-MB-435 = system: MDA-MB-435
SF-268 = system: SF-268
NCI-H522 = system: NCI-H522
UACC-62 = system: UACC-62
SK-MEL-2 = system: SK-MEL-2

Measured: GI50

CC(=O)OC[C@@H]1[C@H]2CC[C@]3(C)[C@@H](OC(C)=O)CC[C@H]3[C@@H]2CC[C@H]1C1(C)SCCS1
inactive: RPMI-8226 > 25 µM | SK-MEL-28 > 25 µM | KM12 > 25 µM | SNB-19 > 25 µM | SW-620 > 25 µM | TK-10 > 25 µM | MDA-MB-231 > 25 µM | COLO 205 > 25 µM | SF-539 > 25 µM | SR > 25 µM | PC-3 > 25 µM | ACHN > 25 µM | Malme-3M > 25 µM | OVCAR-5 > 25 µM | UACC-257 > 25 µM | MDA-MB-435 > 25 µM | SF-268 > 25 µM | NCI-H522 > 25 µM

COc1ccccc1NC(=S)Nc1cc(C)cc(C)n1
inactive: RPMI-8226 > 100 µM | UACC-62 > 100 µM | SK-MEL-28 > 100 µM | SK-MEL-2 > 100 µM | KM12 > 100 µM | SNB-19 > 100 µM | SW-620 > 100 µM | TK-10 > 100 µM | MDA-MB-231 > 100 µM | COLO 205 > 100 µM | SF-539 > 100 µM | PC-3 > 89.9 µM | ACHN > 100 µM | Malme-3M > 100 µM | OVCAR-5 > 100 µM | UACC-257 > 100 µM | MDA-MB-435 > 100 µM | SF-268 > 100 µM

O=[N+]([O-])c1ccc(CSc2nn(Cc3ccc([N+](=O)[O-])cc3)cc3ncnc2-3)cc1
inactive: RPMI-8226 14.8 µM | UACC-62 17.5 µM | SK-MEL-28 22.1 µM | SK-MEL-2 19.7 µM | KM12 30.4 µM | SW-620 21.7 µM | TK-10 29 µM | MDA-MB-231 34.4 µM | COLO 205 39.5 µM | SF-539 32 µM | PC-3 35.5 µM | ACHN 27.5 µM | Malme-3M 27.4 µM | OVCAR-5 > 100 µM | UACC-257 29 µM | MDA-MB-435 21.1 µM | NCI-H522 22.3 µM

CCn1cnc2c(NC(C)=O)ncnc21
inactive: RPMI-8226 > 100 µM | UACC-62 > 100 µM | SK-MEL-28 > 100 µM | SK-MEL-2 > 100 µM | KM12 > 100 µM | SNB-19 > 100 µM | SW-620 > 100 µM | TK-10 > 100 µM | MDA-MB-231 > 100 µM | COLO 205 > 100 µM | SF-539 > 100 µM | PC-3 > 100 µM | ACHN > 100 µM | Malme-3M > 100 µM | OVCAR-5 > 100 µM | UACC-257 > 100 µM | MDA-MB-435 > 100 µM | NCI-H522 > 100 µM

O=C1c2c(O)cc(O)cc2C(C2OC(CO)C(O)C(O)C2O)c2cc(CO)cc(O)c21 (stereo not given)
inactive: RPMI-8226 > 100 µM | UACC-62 > 100 µM | SK-MEL-28 > 100 µM | SNB-19 > 100 µM | SW-620 > 100 µM | TK-10 > 100 µM | MDA-MB-231 > 100 µM | COLO 205 > 100 µM | SR > 100 µM | PC-3 > 100 µM | ACHN > 100 µM | Malme-3M 55.7 µM | OVCAR-5 > 100 µM | UACC-257 > 100 µM | MDA-MB-435 > 100 µM | SF-268 > 100 µM

CCSc1[nH]c(/N=C(/NC(=O)c2ccccc2)NC(C)C)c(C(N)=O)c1C(N)=O
inactive: RPMI-8226 > 10 µM | UACC-62 > 10 µM | SK-MEL-28 > 10 µM | KM12 > 10 µM | SW-620 > 10 µM | TK-10 > 10 µM | MDA-MB-231 > 10 µM | COLO 205 > 10 µM | SR > 10 µM | PC-3 > 10 µM | Malme-3M > 10 µM | UACC-257 > 10 µM | MDA-MB-435 > 10 µM | SF-268 > 10 µM

O=C1OC2c3ccccc3C(=O)C2(c2ccccc2)N1c1ccccc1 (stereo not given)
inactive: RPMI-8226 132 µM | UACC-62 > 200 µM | SK-MEL-28 > 200 µM | SK-MEL-2 > 200 µM | KM12 > 200 µM | SNB-19 > 200 µM | SW-620 > 200 µM | TK-10 > 200 µM | MDA-MB-231 > 200 µM | COLO 205 86.1 µM | SF-539 > 200 µM | PC-3 183 µM | ACHN > 200 µM | Malme-3M > 200 µM | OVCAR-5 > 200 µM | UACC-257 > 200 µM | MDA-MB-435 > 200 µM | SF-268 > 200 µM | NCI-H522 > 200 µM

Cc1ccccc1N/N=C1\C(=O)Nc2ccccc21
inactive: RPMI-8226 > 100 µM | UACC-62 > 100 µM | SK-MEL-28 > 100 µM | SK-MEL-2 > 100 µM | KM12 > 100 µM | SNB-19 > 100 µM | SW-620 > 100 µM | TK-10 > 100 µM | MDA-MB-231 > 100 µM | COLO 205 95.1 µM | SR > 100 µM | PC-3 > 100 µM | ACHN > 100 µM | OVCAR-5 > 100 µM | UACC-257 > 100 µM | MDA-MB-435 > 100 µM | SF-268 > 100 µM | NCI-H522 96.8 µM

CC(=O)N(C(=O)CC(=O)N/N=C\c1ccc(Br)c(N(CCC#N)CCC#N)c1)c1ccc(Cl)cc1
inactive: RPMI-8226 81.8 µM | UACC-62 7.55 µM | SK-MEL-28 > 100 µM | KM12 14.1 µM | SNB-19 25.9 µM | SW-620 93.3 µM | TK-10 27.8 µM | MDA-MB-231 10.6 µM | COLO 205 69.8 µM | SF-539 71.4 µM | SR 44.2 µM | PC-3 96.6 µM | ACHN 14.5 µM | Malme-3M 51.6 µM | OVCAR-5 11.8 µM | MDA-MB-435 27.5 µM | SF-268 > 100 µM

O[C@@]1(c2cccs2)c2cccc(Cl)c2[C@](O)(c2cccs2)c2cccc(Cl)c21
inactive: RPMI-8226 22 µM | UACC-62 11 µM | SK-MEL-28 17.3 µM | SK-MEL-2 18.2 µM | KM12 16.4 µM | SNB-19 26.7 µM | SW-620 17.3 µM | TK-10 28.1 µM | MDA-MB-231 17.3 µM | COLO 205 19.5 µM | SF-539 29.2 µM | PC-3 19.1 µM | ACHN 17 µM | Malme-3M 17.8 µM | OVCAR-5 16.2 µM | UACC-257 15.2 µM | MDA-MB-435 17.2 µM | SF-268 19.8 µM | NCI-H522 18.2 µM

C=C(C)[C@@H]1CC[C@]2(C(=O)OC)CC[C@]3(C)[C@H](CC[C@@H]4[C@@]5(C)CC[C@H](O)C(C)(C)[C@@H]5CC[C@]43C)[C@@H]12 [METHYL BETULINATE]
inactive: SK-MEL-28 22.3 µM | KM12 15.6 µM | SNB-19 18.7 µM | SW-620 19.6 µM | TK-10 > 10 µM | MDA-MB-231 34 µM | SF-539 13.7 µM | SR 32.3 µM | PC-3 16.7 µM | ACHN 16.9 µM | Malme-3M 22.5 µM | OVCAR-5 26.8 µM | UACC-257 19.3 µM | MDA-MB-435 21 µM | SF-268 21.4 µM | NCI-H522 18.9 µM
